# In publication PMC10491346, “Enzyme Mechanistic Studies of NMA1982, a Protein Tyrosine Phosphatase and Potential Virulence Factor in Neisseria meningitidis” (Research Square, 2023):
# Target: T1, NMA1982 (Neisseria meningitidis, UniProt A1KVD0)
# T1 construct: gene NMC1647
# Experiment: biochemical
# T1 sequence (A1KVD0 entry or part of it): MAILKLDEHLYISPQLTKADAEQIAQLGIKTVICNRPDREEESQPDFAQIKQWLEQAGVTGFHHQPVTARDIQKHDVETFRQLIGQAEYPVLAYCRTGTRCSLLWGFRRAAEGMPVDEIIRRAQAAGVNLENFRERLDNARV
smiles,measurement,value
[O]=[V]([OH])([OH])[OH] [sodium orthovanadate],IC50,161 µM
